Measurements published in patent US4552879A, “Benzoheterocyclic compounds and pharmaceutical composition thereof” (Otsuka Pharmaceutical Co., Ltd., priority 1980, dated 1985).
In brackets after ≈: the same amount, converted by molar mass. Like-named read-outs stand apart in the source and are kept apart here.

What was measured:
Experiment in all cases: Minimum inhibitory concentration, serial dilution method on agar plate
Format in all cases: cell-based
Shigella sonnei EW 33 = tested on: Shigella sonnei EW 33
Method: The antimicrobial activity of the following test compounds on various test organisms listed below was determined by the serial dilution method on agar plate (Heart Infusion agar produced by Difco Co.) (see CHEMOTHERAPY 22, pp. 1126-1128 (1974)), and the minimum inhibitory concentrations (mcg/ml) obtained are shown in Tables 1, 2 and 3 below.
A sample of each test organism was prepared so that the population of the organism was 1×10^8 cells/ml (O.D. 660 mμ=0.07 to 0.16) and 1×10^6 cells/ml (which was obtained by diluting 100 fold the above 1×10^8 cells/ml preparation).

[1] = tested on: Pseudomonas aeruginosa NCTC 10490; conditions: for Minimum Inhibitory Concentration: 1×10^6 cells/ml; for MIC: Pseudomonas aeruginosa, NCTC10490, 1×10^8 cells/ml
[2] = tested on: Pseudomonas aeruginosa ATCC 10145; conditions: for MIC: Pseudomonas aeruginosa
[3] = tested on: Staphylococcus aureus FDA 209 P; conditions: for MIC: Staphylococcus aureus
[4] = tested on: Serratia marcescens IFO 12648
Proteus rettgeri NIH 96 = conditions: Providencia rettgeri
[5] = tested on: Pseudomonas aeruginosa E-2; conditions: for MIC: Pseudomonas aeruginosa
[6] = tested on: Escherichia Coli NIHJ JC-2 (IFO 12734)
[7] = tested on: Salmonella typhi 0-901 (NCTC 8393); conditions: Salmonella enterica
Klebsiella pneumoniae = tested on: Klebsiella pneumoniae
[8] = tested on: Streptococcus pyogenes IID S-23; conditions: for MIC: Streptococcus pyogenes
Pseudomonas putida 12996 = tested on: Pseudomonas putida 12996
[9] = ATCC10145, 1×10^6 cells/ml, read-out: Minimum Inhibitory Concentration
[10] = ATCC10145, 1×10^8 cells/ml, read-out: Minimum Inhibitory Concentration
[11] = FDA209, 1×10^6 cells/ml, read-out: Minimum Inhibitory Concentration
[12] = FDA209, 1×10^8 cells/ml, read-out: Minimum Inhibitory Concentration
[13] = IFO12648, 1×10^6 cells/ml, read-out: Minimum Inhibitory Concentration
[14] = IFO12648, 1×10^8 cells/ml, read-out: Minimum Inhibitory Concentration
[15] = NIH96, 1×10^6 cells/ml, read-out: Minimum Inhibitory Concentration
[16] = NIH96, 1×10^8 cells/ml, read-out: Minimum Inhibitory Concentration
[17] = E2, 1×10^6 cells/ml, read-out: Minimum Inhibitory Concentration
[18] = E2, 1×10^8 cells/ml, read-out: Minimum Inhibitory Concentration
[19] = 1×10^6 cells/ml, read-out: Minimum Inhibitory Concentration
[20] = 1×10^8 cells/ml, read-out: Minimum Inhibitory Concentration
[21] = read-out: Minimum Inhibitory Concentration, 1×10^6 cells/ml
[22] = read-out: Minimum Inhibitory Concentration, 1×10^8 cells/ml
[23] = IIDS23, 1×10^6 cells/ml, read-out: Minimum Inhibitory Concentration
[24] = IIDS23, 1×10^8 cells/ml, read-out: Minimum Inhibitory Concentration
[25] = IFO12648, read-out: Minimum Inhibitory Concentration, 1×10^6 cells/ml
[26] = IFO12648, read-out: Minimum Inhibitory Concentration, 1×10^8 cells/ml

| SMILES | MIC (Shigella sonnei EW 33; EW33, 1×10^6 cells/ml) | MIC (Shigella sonnei EW 33; EW33, 1×10^8 cells/ml) | Minimum Inhibitory Concentration [1] | MIC [1] | MIC [2, 9] | MIC [2, 10] | MIC [3, 11] | MIC [3, 12] | MIC (Proteus rettgeri NIH 96; [15]) | MIC (Proteus rettgeri NIH 96; [16]) | MIC [5, 17] | MIC [5, 18] | MIC [6, 19] | MIC [6, 20] | MIC [7, 21] | MIC [7, 22] | MIC (Klebsiella pneumoniae; [19]) | MIC (Klebsiella pneumoniae; [20]) | MIC [8, 23] | MIC [8, 24] | also measured |
| --- | --- | --- | --- | --- | --- | --- | --- | --- | --- | --- | --- | --- | --- | --- | --- | --- | --- | --- | --- | --- | --- |
| CC1Cc2c(N3CCCC3)c(F)cc3c(=O)c(C(=O)O)cn1c23 (stereo not shown) [Compound 6, 9-(1-Pyrrolidinyl)-8-fluoro-2-methyl-1,2-dihydro-6-oxo-pyrrolo[3,2,1-ij]quinoline-5-carboxylic acid] | 0.024 mg/L (≈ 0.0759 µM) | 0.05 mg/L (≈ 0.158 µM) | 1.56 µg/mL | 1.56 mg/L (≈ 4.93 µM) | 1.56 mg/L (≈ 4.93 µM) | 1.56 mg/L (≈ 4.93 µM) | 0.024 mg/L (≈ 0.0759 µM) | 0.024 mg/L (≈ 0.0759 µM) | 0.05 mg/L (≈ 0.158 µM) | 0.1 mg/L (≈ 0.316 µM) | 1.56 mg/L (≈ 4.93 µM) | 1.56 mg/L (≈ 4.93 µM) | 0.2 mg/L (≈ 0.632 µM) | 0.39 mg/L (≈ 1.23 µM) | 0.1 mg/L (≈ 0.316 µM) | 0.1 mg/L (≈ 0.316 µM) | 0.2 mg/L (≈ 0.632 µM) | 0.2 mg/L (≈ 0.632 µM) | 0.78 mg/L (≈ 2.47 µM) | 0.78 mg/L (≈ 2.47 µM) | MIC [4, 13]: 0.39 mg/L (≈ 1.23 µM); MIC [4, 14]: 0.78 mg/L (≈ 2.47 µM) |
| CC1Cc2c(N3CCOCC3)c(F)cc3c(=O)c(C(=O)O)cn1c23 (stereo not shown) [Compound 7, 9-Morpholino-8-fluoro-2-methyl-1,2-dihydro-6-oxo-pyrrolo[3,2,1-ij]quinoline-5-carboxylic acid] | 0.024 mg/L (≈ 0.0722 µM) | 0.024 mg/L (≈ 0.0722 µM) | 1.56 µg/mL | 1.56 mg/L (≈ 4.69 µM) | 1.56 mg/L (≈ 4.69 µM) | 1.56 mg/L (≈ 4.69 µM) | 0.024 mg/L (≈ 0.0722 µM) | 0.024 mg/L (≈ 0.0722 µM) | 0.05 mg/L (≈ 0.15 µM) | 0.05 mg/L (≈ 0.15 µM) | 1.56 mg/L (≈ 4.69 µM) | 1.56 mg/L (≈ 4.69 µM) | 0.2 mg/L (≈ 0.602 µM) | 0.2 mg/L (≈ 0.602 µM) | 0.024 mg/L (≈ 0.0722 µM) | 0.024 mg/L (≈ 0.0722 µM) | 0.1 mg/L (≈ 0.301 µM) | 0.2 mg/L (≈ 0.602 µM) | 0.78 mg/L (≈ 2.35 µM) | 0.78 mg/L (≈ 2.35 µM) | MIC [4, 13]: 0.2 mg/L (≈ 0.602 µM); MIC [4, 14]: 0.39 mg/L (≈ 1.17 µM) |
| CC1Cc2c(N3CCN(C(F)(F)F)CC3)c(F)cc3c(=O)c(C(=O)O)cn1c23.Cl (stereo not shown) [Compound 8, 9-(4-Trifluoromethyl-1-piperazinyl)-8-fluoro-2-methyl-1,2-dihydro-6-oxo-pyrrolo[3,2,1-ij]quinoline-5-carboxylic acid hydrochloride] | ≤ 0.006 mg/L | 0.012 mg/L | 0.39 µg/mL | 0.39 mg/L | 0.39 mg/L | 0.39 mg/L | 0.024 mg/L | 0.05 mg/L | < 0.006 mg/L | 0.012 mg/L | 0.39 mg/L | 0.39 mg/L | 0.024 mg/L | 0.05 mg/L | ≤ 0.006 mg/L | ≤ 0.006 mg/L | 0.012 mg/L | 0.05 mg/L | 0.39 mg/L | 0.78 mg/L | MIC [4, 25]: 0.1 mg/L; MIC [4, 26]: 0.2 mg/L |
| CCn1cc(C(=O)O)c(=O)c2ccc(C)nc21 [Compound 9, 1-Ethyl-1,4-dihydro-7-methyl-4-oxo-1,8-naphthyridine-3-carboxylic acid, reference compound] | 3.13 mg/L (≈ 13.5 µM) | 3.13 mg/L (≈ 13.5 µM) |  |  |  |  |  |  |  |  |  |  |  |  | 3.13 mg/L (≈ 13.5 µM) | 3.13 mg/L (≈ 13.5 µM) |  |  |  |  | Minimum Inhibitory Concentration ([2]; 1×10^6 cells/ml): > 100 µg/mL; MIC ([2]; ATCC10145, read-out: Minimum Inhibitory Concentration): > 100 mg/L; Minimum Inhibitory Concentration (Pseudomonas putida 12996; 1×10^6 cells/ml): > 100 µg/mL; MIC (Pseudomonas putida 12996; Pseudomonas putida, 12996, read-out: Minimum Inhibitory Concentration): > 100 mg/L; Minimum Inhibitory Concentration ([3]; 1×10^6 cells/ml): 50 µg/mL; MIC ([3]; FDA209, read-out: Minimum Inhibitory Concentration): 50 mg/L (≈ 215 µM); MIC [4, 25]: 3.13 mg/L (≈ 13.5 µM); MIC [4, 26]: 3.13 mg/L (≈ 13.5 µM); MIC (Proteus rettgeri NIH 96; NIH96, read-out: Minimum Inhibitory Concentration, 1×10^6 cells/ml): 1.56 mg/L (≈ 6.72 µM); MIC (Proteus rettgeri NIH 96; NIH96, read-out: Minimum Inhibitory Concentration, 1×10^8 cells/ml): 1.56 mg/L (≈ 6.72 µM); Minimum Inhibitory Concentration ([5]; 1×10^6 cells/ml): > 100 µg/mL; MIC ([5]; E2, read-out: Minimum Inhibitory Concentration): > 100 mg/L; MIC [6, 21]: 3.13 mg/L (≈ 13.5 µM); MIC [6, 22]: 3.13 mg/L (≈ 13.5 µM); MIC (Klebsiella pneumoniae; [21]): 1.56 mg/L (≈ 6.72 µM); MIC (Klebsiella pneumoniae; [22]): 1.56 mg/L (≈ 6.72 µM); Minimum Inhibitory Concentration ([8]; 1×10^6 cells/ml): > 100 µg/mL; MIC ([8]; IIDS23, read-out: Minimum Inhibitory Concentration): > 100 mg/L |
